# Values quoted from earlier work as cited in US20110014255A1, “PHYTOSANITARY FORMULATION GENERATING NANOPARTICLES, METHOD FOR PREPARING NANOPARTICLES AND USE THEREOF” (priority 2006, published 2011).
# Where “and” joins values, the source holds several entries; their conditions need not be identical. Equal entries are not always repeated. Structures can show the parent of a compound that is named as a salt.
# Conditions: % by weight
row,Compound,miscibility in water
1,"CC(Cl)Cl [1,1-dichloroethane]",5.03%
2,"CCCC(O)C(CC)CO (centres unmarked) [2-ethyl-1,3-hexanediol]",0.6%
3,CCC(CC)CO [2-ethylbutanol],0.63%
4,CCCCC(CC)CO (centres unmarked) [2-ethylhexanol],0.07%
5,CCCCOC(=O)[C@H](C)O [(S)-n-butyl lactate],4.5%
6,"CCCCCC(C)O (centres unmarked) [Example 2-heptanol, 2-heptanol]",0.35%
7,"CCCCCCCC(=O)N(C)C [N,N-dimethyloctanamide]",0.43%
8,CCCCCCCCN1CCCC1=O [N-octylpyrrolidone],0.1%
9,CCCCCOC(C)=O [N-pentyl acetate],1%
10,CC(=O)c1ccccc1 [acetophenone],0.55%
11,C=CC#N [acrylonitrile],7.35%
12,COc1ccccc1 [anisole],1.04%
13,N#Cc1ccccc1 [benzonitrile],0.2%
14,CC(=O)OCc1ccccc1 [benzyl acetate],0.001%
15,OCc1ccccc1 [benzyl alcohol],0.08%
16,O=C(OCc1ccccc1)c1ccccc1O [benzyl salicylate],0.005%
17,CCCCOC(C)=O [butyl acetate],2.9%
18,CCCC=O [butyraldehyde],7.1%
19,CCCC#N [butyronitrile],3.3%
20,O=C1CCCCC1 [cyclohexanone],2.4% and 2.3%
21,ClCCl [dichloro-methane],1.3%
22,CCOC(=O)c1ccccc1C(=O)OCC [diethyl phthalate],0.1%
23,COC(=O)c1ccccc1C(=O)OC [dimethyl phthalate],1.84%
24,ClCC1CO1 (centres unmarked) [epichlorohydrin],6.58%
25,O=Cc1ccco1 [furfuraldehyde],8.3%
26,CC1=CC(=O)CC(C)(C)C1 [isophorone],1.2%
27,CC(=O)CC(C)C [methyl isobutyl ketone],1.7%
28,CCCCOCCOP(=O)(OCCOCCCC)OCCOCCCC [tributoxyethyl phosphate],0.11%
29,CCCCC(CC)COP(=O)(OCC(CC)CCCC)OCC(CC)CCCC (centres unmarked) [tris(2-ethylhexyl)phosphate],0.1%

# Now from value to molecule:
row,miscibility in water,Compound
1,0.02%,CCCCCCCCCCO [decanol]
2,6.5%,CCCCOCCOCCO [diethylene glycol n-butyl ether]
3,2.4%,COCOC [dimethoxymethane]
4,2.5%,COC(=O)CCCCC(=O)OC [dimethyl adipate]
5,5%,COC(=O)C(=O)OC [dimethyl oxalate]
6,0.002%,c1ccc(Oc2ccccc2)cc1 [diphenyl ether]
7,8%,CCOC(C)=O [ethyl acetate]
8,2%,CC(=O)OCCC(C)C [isoamyl acetate]
9,0.67%,CC(=O)OCC(C)C [isobutyl acetate]
10,0.5%,CC(C)COC(=O)C(C)C [isobutyl isobutyrate]
11,2.9%,CC(=O)OC(C)C [isopropyl acetate]
12,0.074% and 0.07%,COC(=O)c1ccccc1O [methyl salicylate]
13,2.3%,CCCOC(C)=O [propyl acetate]
14,0.61%,c1ccc2ncccc2c1 [quinoline]

# Same assay, conditions: % by weight; listed as octyl pyrrolidone
row,miscibility in water,Compound
1,not more than 0.1%,CCCCCCCCN1CCCC1=O [N-octylpyrrolidone]
